Our source for the EC50 and IC50 values is paper PMC3398342, “Cyanidin-3-O-β-glucoside regulates fatty acid metabolism via an AMP-activated protein kinase-dependent signaling pathway in human HepG2 cells” (2012).

Test [1] deals with T1, glycogen phosphorylase (GPPase) (Oryctolagus cuniculus, UniProt P00489).
T1 construct: gene PYGM
T1 sequence (P00489 2-843): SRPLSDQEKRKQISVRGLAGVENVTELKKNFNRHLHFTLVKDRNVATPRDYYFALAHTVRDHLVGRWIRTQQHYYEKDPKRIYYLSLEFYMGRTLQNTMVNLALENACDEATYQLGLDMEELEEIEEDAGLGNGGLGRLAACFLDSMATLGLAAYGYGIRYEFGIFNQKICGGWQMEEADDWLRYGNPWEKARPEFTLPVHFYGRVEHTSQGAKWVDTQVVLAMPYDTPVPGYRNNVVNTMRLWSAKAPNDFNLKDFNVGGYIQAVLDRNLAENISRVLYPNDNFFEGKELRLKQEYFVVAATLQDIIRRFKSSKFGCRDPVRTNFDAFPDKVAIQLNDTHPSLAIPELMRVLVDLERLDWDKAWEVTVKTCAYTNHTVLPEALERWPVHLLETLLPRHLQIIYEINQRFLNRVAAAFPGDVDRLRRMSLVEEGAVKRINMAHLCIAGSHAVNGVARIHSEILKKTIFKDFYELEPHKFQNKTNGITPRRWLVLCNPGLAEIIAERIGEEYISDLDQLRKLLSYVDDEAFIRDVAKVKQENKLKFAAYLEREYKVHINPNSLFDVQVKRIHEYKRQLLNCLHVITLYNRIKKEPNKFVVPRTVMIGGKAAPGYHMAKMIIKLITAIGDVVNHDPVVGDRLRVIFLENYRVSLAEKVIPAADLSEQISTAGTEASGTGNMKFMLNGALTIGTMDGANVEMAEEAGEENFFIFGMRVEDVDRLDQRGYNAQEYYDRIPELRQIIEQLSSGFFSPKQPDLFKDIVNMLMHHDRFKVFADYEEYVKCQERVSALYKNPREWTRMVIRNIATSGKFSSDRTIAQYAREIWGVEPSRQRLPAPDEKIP
Briefly: phosphoglucomutase/G6PDH-coupled spectrophotometric activity assay with glycogen; activation. Type of test: biochemical.

For test [2], the target named is T2, fructose1,6-diphosphatase (FBPase).
T2 construct: gene FBP1
Briefly: Malachite Green phosphate-release assay with D-fructose-1,6-diphosphate. Type of test: biochemical.

For the compound `Nc1ncnc2c1ncn2[C@@H]1O[C@H](COP(=O)(O)O)[C@@H](O)[C@H]1O` [AMP], the EC50 (in general, the concentration that produces a half-maximal response) in test [1] was determined as 18.5 µM. The half-inhibitory concentration (IC50) (in general, the midpoint of a concentration-inhibition curve) in test [2] stood at 1.6 µM.
